# Earlier results as cited in patent publication US10010080B2, “Process for the production of partially polymerized antimicrobial silanol quaternary ammonium compounds” (Indusco, Ltd., priority 2015, dated 2018).
# Conditions: Dow Corning material safety data sheet
smiles,measurement,value
"CO[Si](CCCCl)(OC)OC [CPTMS, chloropropyptrimethoxy silane]",time weighted average (TWA) for human exposure,0.1 part per million
